How the values were obtained:
Type in all cases: binding
[1] = molecular target: T1, selected panels of kinases in HeLa and PC3 cell lysates (Homo sapiens, UniProt Q8NEB9); experiment: KiNativ chemical proteomics profiling in HeLa and PC3 cell lysates; details: 10 uM; PIK3C3; peptide […]kHGDDLR; proteome HEL; labeling site ATP
T1 construct: endogenous in cells; host or cells: HeLa and PC3 cell lysates

[2] = molecular target: T2, selected panels of kinases in HeLa and PC3 cell lysates (Homo sapiens, UniProt Q07912); experiment: as above; details: 10 uM; proteome HEL; peptide TVSVAVk[…]; labeling site Lys1
T2 construct: endogenous in cells; host or cells: HeLa and PC3 cell lysates
T2 sequence (Q07912 whole entry): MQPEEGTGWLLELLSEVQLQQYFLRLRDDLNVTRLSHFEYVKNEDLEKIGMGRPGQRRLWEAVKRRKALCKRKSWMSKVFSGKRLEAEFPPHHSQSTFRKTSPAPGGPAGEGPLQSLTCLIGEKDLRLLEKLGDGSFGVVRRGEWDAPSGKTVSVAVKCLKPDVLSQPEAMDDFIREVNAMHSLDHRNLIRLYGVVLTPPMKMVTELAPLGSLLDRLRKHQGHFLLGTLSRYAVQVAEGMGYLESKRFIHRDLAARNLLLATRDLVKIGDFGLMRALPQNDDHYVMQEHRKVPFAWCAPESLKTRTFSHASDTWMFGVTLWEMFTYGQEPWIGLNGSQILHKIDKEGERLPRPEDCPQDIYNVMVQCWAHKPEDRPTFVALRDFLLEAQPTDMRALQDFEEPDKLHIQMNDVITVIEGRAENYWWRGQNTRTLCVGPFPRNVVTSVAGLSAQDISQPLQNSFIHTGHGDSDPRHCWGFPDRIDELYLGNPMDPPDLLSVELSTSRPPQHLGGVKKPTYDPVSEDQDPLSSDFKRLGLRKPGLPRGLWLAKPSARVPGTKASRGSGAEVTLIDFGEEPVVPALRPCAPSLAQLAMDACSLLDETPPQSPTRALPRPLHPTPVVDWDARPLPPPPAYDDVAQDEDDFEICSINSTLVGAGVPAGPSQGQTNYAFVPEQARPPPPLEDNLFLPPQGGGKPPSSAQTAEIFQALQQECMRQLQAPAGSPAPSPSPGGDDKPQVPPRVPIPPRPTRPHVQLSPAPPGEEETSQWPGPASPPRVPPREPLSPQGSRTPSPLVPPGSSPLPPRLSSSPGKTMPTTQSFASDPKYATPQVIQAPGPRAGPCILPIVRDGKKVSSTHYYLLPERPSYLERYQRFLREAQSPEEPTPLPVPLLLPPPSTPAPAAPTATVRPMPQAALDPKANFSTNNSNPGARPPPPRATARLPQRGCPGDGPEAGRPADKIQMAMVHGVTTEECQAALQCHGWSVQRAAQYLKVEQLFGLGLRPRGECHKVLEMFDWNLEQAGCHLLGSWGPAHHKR

[3] = molecular target: T3, selected panels of kinases in HeLa and PC3 cell lysates (Homo sapiens, UniProt Q8TBX8); experiment: as above; details: 10 uM, PIP4K2C, labeling site ATP
T3 construct: endogenous in cells; host or cells: HeLa and PC3 cell lysates
T3 sequence (Q8TBX8 1-421): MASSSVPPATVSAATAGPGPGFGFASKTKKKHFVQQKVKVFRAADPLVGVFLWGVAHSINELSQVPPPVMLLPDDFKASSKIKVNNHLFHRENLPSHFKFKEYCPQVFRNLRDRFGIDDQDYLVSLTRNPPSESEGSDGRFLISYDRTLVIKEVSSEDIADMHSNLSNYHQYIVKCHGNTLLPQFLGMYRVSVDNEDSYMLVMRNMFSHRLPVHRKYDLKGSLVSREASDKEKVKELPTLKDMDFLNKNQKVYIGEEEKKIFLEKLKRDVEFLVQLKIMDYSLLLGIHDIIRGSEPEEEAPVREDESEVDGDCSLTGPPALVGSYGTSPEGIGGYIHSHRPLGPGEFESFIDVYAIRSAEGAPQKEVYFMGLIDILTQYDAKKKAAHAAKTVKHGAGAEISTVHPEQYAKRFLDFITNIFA

panel of 442 kinases [4] = molecular target: T4, panel of 442 kinases (Homo sapiens, UniProt P00519, H396P); parameters: KINOMEscan: ABL1(F317L)-phosphorylated / KINOMEscan: ABL1(H396P)-nonphosphorylated / KINOMEscan: ABL1(H396P)-phosphorylated / KINOMEscan: ABL1(M351T)-phosphorylated / KINOMEscan: ABL1(T315I)-phosphorylated / KINOMEscan: ABL1-nonphosphorylated / KINOMEscan: ABL1-phosphorylated / KINOMEscan: ACVR2A / KINOMEscan: ACVR2B / KINOMEscan: ADCK3 / KINOMEscan: ADCK4 / KINOMEscan: AKT1 / KINOMEscan: AKT3 / KINOMEscan: ALK / KINOMEscan: ARK5 / KINOMEscan: AURKA / KINOMEscan: AURKC / KINOMEscan: BIKE / KINOMEscan: BMPR1A / KINOMEscan: BMPR1B / KINOMEscan: BMX / KINOMEscan: BRK / KINOMEscan: BRSK1 / KINOMEscan: BRSK2 / KINOMEscan: CAMK1 / KINOMEscan: CAMK1D / KINOMEscan: CAMK1G / KINOMEscan: CAMK2A / KINOMEscan: CAMK2B / KINOMEscan: AAK1 / KINOMEscan: CAMK2D / KINOMEscan: CAMK2G / KINOMEscan: ABL1(F317I)-nonphosphorylated / KINOMEscan: ABL1(F317I)-phosphorylated / KINOMEscan: ABL1(F317L)-nonphosphorylated: unit: % Ctrl; details: Compound Concentration 10 µM
T4 construct: purchased KINOMEscan
Description: (§1) We assessed the selectivity of members of this scaffold using the KINOMEscan methodology across a near comprehensive panel of 442 kinases [[18,27]].

panel of 442 kinases [5] = molecular target: T5, panel of 442 kinases (Homo sapiens, UniProt Q15759); parameters: KINOMEscan: ABL1(F317L)-phosphorylated / KINOMEscan: ABL1(H396P)-nonphosphorylated / KINOMEscan: ABL1(H396P)-phosphorylated / KINOMEscan: ABL1(M351T)-phosphorylated / KINOMEscan: ABL1(T315I)-phosphorylated / KINOMEscan: ABL1-nonphosphorylated / KINOMEscan: ABL1-phosphorylated / KINOMEscan: ACVR2A / KINOMEscan: ACVR2B / KINOMEscan: ADCK3 / KINOMEscan: ADCK4 / KINOMEscan: AKT1 / KINOMEscan: AKT3 / KINOMEscan: ALK / KINOMEscan: ARK5 / KINOMEscan: AURKA / KINOMEscan: AURKC / KINOMEscan: BIKE / KINOMEscan: BMPR1A / KINOMEscan: BMPR1B / KINOMEscan: BMX / KINOMEscan: BRK / KINOMEscan: BRSK1 / KINOMEscan: BRSK2 / KINOMEscan: CAMK1 / KINOMEscan: CAMK1D / KINOMEscan: CAMK1G / KINOMEscan: CAMK2A / KINOMEscan: CAMK2B / KINOMEscan: AAK1 / KINOMEscan: CAMK2D / KINOMEscan: CAMK2G / KINOMEscan: ABL1(F317I)-nonphosphorylated / KINOMEscan: ABL1(F317I)-phosphorylated / KINOMEscan: ABL1(F317L)-nonphosphorylated: unit: % Ctrl; details: Compound Concentration 10 µM
T5 construct: purchased KINOMEscan
T5 sequence (Q15759 whole entry): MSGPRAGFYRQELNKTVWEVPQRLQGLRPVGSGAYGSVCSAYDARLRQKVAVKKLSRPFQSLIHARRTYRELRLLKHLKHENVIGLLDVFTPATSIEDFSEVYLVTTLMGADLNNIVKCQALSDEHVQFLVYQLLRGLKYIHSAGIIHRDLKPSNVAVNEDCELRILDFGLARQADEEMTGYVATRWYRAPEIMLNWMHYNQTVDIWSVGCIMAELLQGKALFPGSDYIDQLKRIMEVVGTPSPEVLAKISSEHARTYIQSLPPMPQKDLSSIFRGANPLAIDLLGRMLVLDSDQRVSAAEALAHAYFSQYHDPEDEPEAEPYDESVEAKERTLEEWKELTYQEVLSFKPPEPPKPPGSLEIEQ
Description: as §1

panel of 442 kinases [6] = molecular target: T6, panel of 442 kinases (Homo sapiens, UniProt P51957); parameters: KINOMEscan: ABL1(F317L)-phosphorylated / KINOMEscan: ABL1(H396P)-nonphosphorylated / KINOMEscan: ABL1(H396P)-phosphorylated / KINOMEscan: ABL1(M351T)-phosphorylated / KINOMEscan: ABL1(T315I)-phosphorylated / KINOMEscan: ABL1-nonphosphorylated / KINOMEscan: ABL1-phosphorylated / KINOMEscan: ACVR2A / KINOMEscan: ACVR2B / KINOMEscan: ADCK3 / KINOMEscan: ADCK4 / KINOMEscan: AKT1 / KINOMEscan: AKT3 / KINOMEscan: ALK / KINOMEscan: ARK5 / KINOMEscan: AURKA / KINOMEscan: AURKC / KINOMEscan: BIKE / KINOMEscan: BMPR1A / KINOMEscan: BMPR1B / KINOMEscan: BMX / KINOMEscan: BRK / KINOMEscan: BRSK1 / KINOMEscan: BRSK2 / KINOMEscan: CAMK1 / KINOMEscan: CAMK1D / KINOMEscan: CAMK1G / KINOMEscan: CAMK2A / KINOMEscan: CAMK2B / KINOMEscan: AAK1 / KINOMEscan: CAMK2D / KINOMEscan: CAMK2G / KINOMEscan: ABL1(F317I)-nonphosphorylated / KINOMEscan: ABL1(F317I)-phosphorylated / KINOMEscan: ABL1(F317L)-nonphosphorylated: unit: % Ctrl; details: Compound Concentration 10 µM
T6 construct: purchased KINOMEscan
T6 sequence (P51957 whole entry): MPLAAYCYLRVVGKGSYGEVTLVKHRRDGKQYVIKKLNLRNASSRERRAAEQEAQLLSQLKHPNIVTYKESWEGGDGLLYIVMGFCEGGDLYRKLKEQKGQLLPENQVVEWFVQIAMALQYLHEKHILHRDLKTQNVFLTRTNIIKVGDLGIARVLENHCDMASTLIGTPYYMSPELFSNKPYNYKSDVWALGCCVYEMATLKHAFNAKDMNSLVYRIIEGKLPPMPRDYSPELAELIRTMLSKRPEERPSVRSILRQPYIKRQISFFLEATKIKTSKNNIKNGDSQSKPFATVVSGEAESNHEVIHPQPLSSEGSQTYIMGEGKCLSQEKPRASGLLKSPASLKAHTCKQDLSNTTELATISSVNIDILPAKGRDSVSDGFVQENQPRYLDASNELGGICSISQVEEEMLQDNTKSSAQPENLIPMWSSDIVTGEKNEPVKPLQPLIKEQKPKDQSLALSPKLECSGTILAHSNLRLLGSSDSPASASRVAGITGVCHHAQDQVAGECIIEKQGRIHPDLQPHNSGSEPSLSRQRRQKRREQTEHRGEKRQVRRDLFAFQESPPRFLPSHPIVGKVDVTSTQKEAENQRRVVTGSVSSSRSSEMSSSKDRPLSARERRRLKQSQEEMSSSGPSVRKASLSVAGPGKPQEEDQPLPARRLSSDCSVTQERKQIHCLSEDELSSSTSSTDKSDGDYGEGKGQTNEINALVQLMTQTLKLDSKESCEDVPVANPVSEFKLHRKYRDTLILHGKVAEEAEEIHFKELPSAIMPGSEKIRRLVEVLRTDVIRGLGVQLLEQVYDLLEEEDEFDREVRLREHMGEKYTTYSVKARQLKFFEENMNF
Description: as §1

[7] = peptide ELPTLkDMDFLNK, proteome PC3

T1 sequence (Q8NEB9 whole entry): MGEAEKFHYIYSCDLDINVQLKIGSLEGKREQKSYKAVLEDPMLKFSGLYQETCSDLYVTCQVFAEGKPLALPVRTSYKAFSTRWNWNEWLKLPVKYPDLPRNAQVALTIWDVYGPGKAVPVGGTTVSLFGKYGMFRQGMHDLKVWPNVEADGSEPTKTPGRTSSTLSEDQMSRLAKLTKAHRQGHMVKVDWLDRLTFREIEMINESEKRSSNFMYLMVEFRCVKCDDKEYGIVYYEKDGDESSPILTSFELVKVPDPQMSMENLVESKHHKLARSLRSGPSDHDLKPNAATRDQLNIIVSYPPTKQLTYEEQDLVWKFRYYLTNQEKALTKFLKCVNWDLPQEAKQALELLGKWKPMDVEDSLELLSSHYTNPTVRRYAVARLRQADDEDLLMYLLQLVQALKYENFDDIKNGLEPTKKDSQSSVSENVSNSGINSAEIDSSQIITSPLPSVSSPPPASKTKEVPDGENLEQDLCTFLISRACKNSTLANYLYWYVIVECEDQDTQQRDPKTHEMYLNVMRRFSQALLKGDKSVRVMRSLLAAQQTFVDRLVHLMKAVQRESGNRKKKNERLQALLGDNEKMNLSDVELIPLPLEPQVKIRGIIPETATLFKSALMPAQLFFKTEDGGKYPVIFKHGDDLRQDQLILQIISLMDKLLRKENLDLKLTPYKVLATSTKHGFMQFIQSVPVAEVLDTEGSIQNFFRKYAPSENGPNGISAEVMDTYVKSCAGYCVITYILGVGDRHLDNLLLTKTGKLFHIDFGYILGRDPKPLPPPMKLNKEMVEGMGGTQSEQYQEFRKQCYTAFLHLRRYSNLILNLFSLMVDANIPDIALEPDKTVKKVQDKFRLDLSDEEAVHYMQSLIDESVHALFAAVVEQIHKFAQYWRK

SMILES	% Inhibition PIK3C3 [1] [%]	% Inhibiton, ACK [2] [%]	% Inhibition PIP4K2C [3, 7] [%]	% Inhibition PIP4K2C ([3]; peptide TLVIk[…], proteome HEL) [%]	% Inhibition PIP4K2C ([3]; peptide TLVIk[…], proteome PC3) [%]	KINOMEscan: ABL1(H396P)-nonphosphorylated (panel of 442 kinases [4])	KINOMEscan: ABL1(H396P)-phosphorylated (panel of 442 kinases [4])	KINOMEscan: p38-beta (panel of 442 kinases [5])	KINOMEscan: NEK4 (panel of 442 kinases [6])
CCOc1cc(C(=O)N2CCC(N3CCN(C)CC3)CC2)ccc1Nc1ncc2c(n1)N(C1CCCC1)c1ccccc1C(=O)N2C [Compound 26]	8.1	20.1	-6.2	4.7	-5.8	86	100	81	89
COc1cc(C(=O)N2CCC(N3CCN(C)CC3)CC2)ccc1Nc1ncc2c(n1)N1CCc3cccc(c31)C(=O)N2C [Compound 24]	–	–	–	–	–	34	100	56	–
COc1cc(C(=O)N2CCC(N3CCN(C)CC3)CC2)ccc1Nc1ncc2c(n1)N(C)c1ccccc1C(=O)N2C [15 (LRRK2-IN-1)]	–	–	–	–	–	100	100	60	95
COc1cc(C(=O)N2CCC(N3CCN(C)CC3)CC2)ccc1Nc1ncc2c(n1)N(C1CCCC1)c1ccccc1C(=O)N2C [Compound 25, 11-cyclopentyl-2-((2-methoxy-4-(4-(4-methylpiperazin-1-yl)piperidine-1-carbonyl)phenyl)amino)-5-methyl-5H-benzo[e]pyrimido[5,4-b][1,4]diazepin-6(11H)-one]	4.0	43.5	21.5	9.5	-0.123	47	100	56	97

From article PMC3914206
